From ChEMBL document CHEMBL1201862, “PubChem BioAssay data set” (2004)
Calls of active or inactive are those of the source.

Legend:
[1] = Vero cell cytotoxicity, dose response, cytotoxicity control for Vif-APOBEC3G degradation inhibitor project, Vero cells (AID 1117358); type: functional; details: Human immunodeficiency virus 1, Vero
Mucolipin-3 = target: T1, Mucolipin-3 (Homo sapiens, UniProt Q8TDD5); test: Dose response cell-based high-throughput screening assay for agonists of the transient receptor potential channel ML3 (TRPML3). [Related pubchem assays: 1526, 1424, 1448 ]; type: functional
T1 sequence (Q8TDD5 whole entry): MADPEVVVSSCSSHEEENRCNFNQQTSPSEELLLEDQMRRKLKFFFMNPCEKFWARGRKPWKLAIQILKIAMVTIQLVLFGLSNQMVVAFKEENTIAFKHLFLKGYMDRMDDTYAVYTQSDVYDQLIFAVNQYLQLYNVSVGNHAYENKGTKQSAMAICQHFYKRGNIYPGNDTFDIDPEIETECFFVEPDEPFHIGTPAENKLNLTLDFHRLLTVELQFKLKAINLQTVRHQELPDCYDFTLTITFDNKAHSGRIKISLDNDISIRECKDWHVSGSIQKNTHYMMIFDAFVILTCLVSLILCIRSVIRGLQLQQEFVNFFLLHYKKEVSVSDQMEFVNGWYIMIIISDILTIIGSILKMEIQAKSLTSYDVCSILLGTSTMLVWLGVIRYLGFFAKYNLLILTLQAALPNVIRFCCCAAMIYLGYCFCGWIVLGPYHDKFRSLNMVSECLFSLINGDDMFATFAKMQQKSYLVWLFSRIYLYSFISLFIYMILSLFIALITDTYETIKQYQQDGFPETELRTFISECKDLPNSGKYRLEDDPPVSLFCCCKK

Ion channel NompC = Ion channel NompC (Danio rerio, UniProt Q7T1G6); test: Fluorescence counterscreen assay for TRPML3 agonists: dose response cell-based high-throughput screening assay to identify agonists of the transient receptor potential channel N1 (TRPN1). [Related pubchem assays: 1526, 1424, 1448 ]; type: functional
[2] = target: T2, Disintegrin and metalloproteinase domain-containing protein 17 (Homo sapiens, UniProt P78536); test: exosite inhibitors of ADAM17, dose response, biochemical (AID 743260)
[3] = inhibitors of Vif binding to APOBEC3G peptide, primary screen, biochemical, TR-FRET, GST-Vif 1-94, biotin-A3G peptide, dose response retest (AID 1117319); type: functional;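 note: TR-FRET signal of purified GST-Vif binding a biotinylated A3G peptide; inhibitors lower the FRET signal by blocking Vif and A3G binding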
[4] = target: T3, Microphthalmia-associated transcription factor (Homo sapiens, UniProt O75030); test: TRPM1 promoter luciferase signal decrease, dose response, MITF inhibitor project, cell-based, SK-MEL-5, cherry-picked, set 3 (AID 493073); type: functional
T3 sequence (O75030 whole entry): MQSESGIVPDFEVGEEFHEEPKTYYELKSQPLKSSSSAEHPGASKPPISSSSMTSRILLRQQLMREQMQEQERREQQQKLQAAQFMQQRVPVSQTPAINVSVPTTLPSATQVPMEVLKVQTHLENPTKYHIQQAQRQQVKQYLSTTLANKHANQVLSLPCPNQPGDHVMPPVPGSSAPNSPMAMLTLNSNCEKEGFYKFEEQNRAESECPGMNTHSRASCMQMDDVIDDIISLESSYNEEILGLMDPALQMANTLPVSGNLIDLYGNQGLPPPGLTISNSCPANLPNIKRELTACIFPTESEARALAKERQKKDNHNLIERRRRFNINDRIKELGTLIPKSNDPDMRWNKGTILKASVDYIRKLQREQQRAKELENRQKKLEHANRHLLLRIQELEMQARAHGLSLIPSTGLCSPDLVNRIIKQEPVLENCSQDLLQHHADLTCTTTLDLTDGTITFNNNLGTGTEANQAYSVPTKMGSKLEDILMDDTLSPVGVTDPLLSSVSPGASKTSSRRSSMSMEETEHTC

[5] = inhibitors of PGC1a acetylation in cells, dose response, cell-based, cherry-picked samples (AID 720514); type: functional;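 note: potency may reflect raised or lowered acetylation signal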
[6] = ADAM10 inhibitors, peptide cleavage, dose response, biochemical, QFRET (AID 743254);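 note: ADAM10 enzyme with the DM2 quenched FRET peptide as substrate; EDANS fluorescence gain as the protease cuts the substrate; inhibitor potency against ADAM10 proteolytic activity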
[7] = target: T2, Disintegrin and metalloproteinase domain-containing protein 17; test: ADAM17 protease inhibitors, dose response, counter-screen for ADAM10 exosite inhibitor project, biochemical, quenched FRET substrate (AID 743253)
[8] = target: SWI/SNF-related matrix-associated actin-dependent regulator of chromatin subfamily A member 2 (Homo sapiens, UniProt P51531); test: Luminescence-based cell-based high throughput dose response assay to identify activators of the function of SWI/SNF related, matrix associated, actin dependent regulator of chromatin, subfamily a, member 2 (SMARCA2, BRM).; type: functional
[9] = Counterscreen for activators of the function of SWI/SNF related, matrix associated, actin dependent regulator of chromatin, subfamily a, member 2 (SMARCA2, BRM): Luminescence-based cell-based high throughput dose response assay to identify non-selective compounds using the VP16 reporter assay.; type: functional
[10] = target: E3 ubiquitin-protein ligase UHRF1 (Homo sapiens, UniProt Q96T88); test: Counterscreen for inhibitors of 5-meCpG-binding domain protein 2 (MBD2): TRFRET-based biochemical high throughput dose response assay to identify inhibitors of binding of ubiquitin-like with PHD and ring finger domains 1 (UHRF1) to methylated oligonucleotide.
HEK293 [11] = test: cells; details: Homo sapiens
HEK293 [12] = test: cells; details: Homo sapiens; remark: listed apart in the source
[13] = target: COUP transcription factor 2 (Homo sapiens, UniProt P24468); test: Luminescence-based cell-based high throughput dose response assay to identify inhibitors of COUP-TFII (NR2F2).; type: functional;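 note: HEK293 cells transiently cotransfected with COUP-TFII expression vector and reporter; luciferase reporter luminescence driven by COUP-TFII from the pX2-168 reporter plasmid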
COUP transcription factor 2, sequence (P24468 whole entry): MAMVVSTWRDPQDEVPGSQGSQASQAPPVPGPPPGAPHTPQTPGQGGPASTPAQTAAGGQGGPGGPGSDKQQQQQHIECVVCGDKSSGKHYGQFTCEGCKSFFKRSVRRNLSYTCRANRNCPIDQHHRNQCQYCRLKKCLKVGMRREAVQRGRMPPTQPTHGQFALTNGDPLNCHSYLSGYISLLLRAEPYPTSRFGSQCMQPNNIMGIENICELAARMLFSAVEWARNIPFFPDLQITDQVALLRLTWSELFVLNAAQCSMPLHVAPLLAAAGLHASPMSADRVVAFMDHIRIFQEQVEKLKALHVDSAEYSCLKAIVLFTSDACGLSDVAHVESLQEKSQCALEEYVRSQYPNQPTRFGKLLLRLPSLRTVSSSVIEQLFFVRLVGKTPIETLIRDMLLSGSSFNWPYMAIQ

T2 sequence (P78536 whole entry, the tested form may be a part): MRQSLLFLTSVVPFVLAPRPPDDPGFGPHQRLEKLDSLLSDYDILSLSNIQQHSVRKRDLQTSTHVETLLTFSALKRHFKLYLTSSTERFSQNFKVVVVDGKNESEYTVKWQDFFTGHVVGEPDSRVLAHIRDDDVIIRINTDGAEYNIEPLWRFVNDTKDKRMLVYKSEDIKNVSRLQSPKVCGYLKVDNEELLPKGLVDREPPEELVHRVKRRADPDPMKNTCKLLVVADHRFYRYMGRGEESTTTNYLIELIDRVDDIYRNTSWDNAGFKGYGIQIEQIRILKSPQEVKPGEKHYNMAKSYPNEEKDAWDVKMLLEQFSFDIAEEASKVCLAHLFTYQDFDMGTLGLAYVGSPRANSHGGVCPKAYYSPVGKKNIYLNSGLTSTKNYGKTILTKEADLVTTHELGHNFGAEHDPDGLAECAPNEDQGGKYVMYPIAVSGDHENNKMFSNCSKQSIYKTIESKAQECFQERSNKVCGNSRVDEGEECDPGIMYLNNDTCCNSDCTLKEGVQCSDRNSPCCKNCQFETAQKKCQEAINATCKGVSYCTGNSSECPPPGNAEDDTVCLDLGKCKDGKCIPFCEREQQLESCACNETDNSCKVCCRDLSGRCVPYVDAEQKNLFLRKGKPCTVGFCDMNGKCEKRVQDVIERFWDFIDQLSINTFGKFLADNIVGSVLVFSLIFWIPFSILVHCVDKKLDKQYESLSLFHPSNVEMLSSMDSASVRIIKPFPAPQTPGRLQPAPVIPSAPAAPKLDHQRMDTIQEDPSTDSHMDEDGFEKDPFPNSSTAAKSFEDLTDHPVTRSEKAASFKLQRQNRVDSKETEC
SWI/SNF-related matrix-associated actin-dependent regulator of chromatin subfamily A member 2, sequence (P51531 whole entry): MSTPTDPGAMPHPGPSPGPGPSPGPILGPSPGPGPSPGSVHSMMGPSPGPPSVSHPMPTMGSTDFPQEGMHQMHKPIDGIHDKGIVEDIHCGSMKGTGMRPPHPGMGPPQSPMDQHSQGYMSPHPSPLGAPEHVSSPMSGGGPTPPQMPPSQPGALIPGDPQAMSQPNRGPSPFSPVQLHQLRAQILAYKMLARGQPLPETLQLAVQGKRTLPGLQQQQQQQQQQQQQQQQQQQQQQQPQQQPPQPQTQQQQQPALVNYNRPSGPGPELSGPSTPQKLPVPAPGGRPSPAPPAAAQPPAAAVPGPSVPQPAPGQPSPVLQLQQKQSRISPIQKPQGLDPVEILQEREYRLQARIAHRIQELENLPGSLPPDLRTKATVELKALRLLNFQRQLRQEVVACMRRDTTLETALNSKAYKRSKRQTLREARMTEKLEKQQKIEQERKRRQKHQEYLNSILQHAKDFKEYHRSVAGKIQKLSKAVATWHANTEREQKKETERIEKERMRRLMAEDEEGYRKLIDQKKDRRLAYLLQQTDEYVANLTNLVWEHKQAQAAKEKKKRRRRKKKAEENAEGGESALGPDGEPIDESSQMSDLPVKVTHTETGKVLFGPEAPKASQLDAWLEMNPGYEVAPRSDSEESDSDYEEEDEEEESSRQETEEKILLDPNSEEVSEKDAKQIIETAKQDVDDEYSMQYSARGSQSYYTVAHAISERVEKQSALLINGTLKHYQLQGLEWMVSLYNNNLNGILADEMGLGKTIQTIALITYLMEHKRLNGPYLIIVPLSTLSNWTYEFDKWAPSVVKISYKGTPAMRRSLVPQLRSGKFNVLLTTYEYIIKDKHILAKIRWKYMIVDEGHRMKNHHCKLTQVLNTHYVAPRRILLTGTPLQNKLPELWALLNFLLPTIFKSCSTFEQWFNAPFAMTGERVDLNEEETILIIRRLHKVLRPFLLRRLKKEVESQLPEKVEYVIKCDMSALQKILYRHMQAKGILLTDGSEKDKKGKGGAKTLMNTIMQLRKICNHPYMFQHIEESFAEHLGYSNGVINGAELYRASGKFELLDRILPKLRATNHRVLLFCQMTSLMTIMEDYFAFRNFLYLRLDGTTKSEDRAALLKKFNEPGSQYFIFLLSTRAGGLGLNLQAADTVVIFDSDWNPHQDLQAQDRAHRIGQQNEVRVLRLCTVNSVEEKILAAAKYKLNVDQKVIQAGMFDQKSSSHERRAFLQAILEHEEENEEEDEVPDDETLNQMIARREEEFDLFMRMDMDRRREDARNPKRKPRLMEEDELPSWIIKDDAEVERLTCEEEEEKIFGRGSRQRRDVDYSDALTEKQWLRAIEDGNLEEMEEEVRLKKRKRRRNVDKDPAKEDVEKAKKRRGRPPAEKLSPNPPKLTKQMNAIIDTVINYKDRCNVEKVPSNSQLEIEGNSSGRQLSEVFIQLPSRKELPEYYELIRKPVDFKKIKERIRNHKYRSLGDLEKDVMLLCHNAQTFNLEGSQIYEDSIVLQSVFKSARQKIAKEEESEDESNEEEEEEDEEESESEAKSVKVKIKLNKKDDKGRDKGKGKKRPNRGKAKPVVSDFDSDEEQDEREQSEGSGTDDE
E3 ubiquitin-protein ligase UHRF1, sequence (Q96T88 whole entry, the tested form may be a part): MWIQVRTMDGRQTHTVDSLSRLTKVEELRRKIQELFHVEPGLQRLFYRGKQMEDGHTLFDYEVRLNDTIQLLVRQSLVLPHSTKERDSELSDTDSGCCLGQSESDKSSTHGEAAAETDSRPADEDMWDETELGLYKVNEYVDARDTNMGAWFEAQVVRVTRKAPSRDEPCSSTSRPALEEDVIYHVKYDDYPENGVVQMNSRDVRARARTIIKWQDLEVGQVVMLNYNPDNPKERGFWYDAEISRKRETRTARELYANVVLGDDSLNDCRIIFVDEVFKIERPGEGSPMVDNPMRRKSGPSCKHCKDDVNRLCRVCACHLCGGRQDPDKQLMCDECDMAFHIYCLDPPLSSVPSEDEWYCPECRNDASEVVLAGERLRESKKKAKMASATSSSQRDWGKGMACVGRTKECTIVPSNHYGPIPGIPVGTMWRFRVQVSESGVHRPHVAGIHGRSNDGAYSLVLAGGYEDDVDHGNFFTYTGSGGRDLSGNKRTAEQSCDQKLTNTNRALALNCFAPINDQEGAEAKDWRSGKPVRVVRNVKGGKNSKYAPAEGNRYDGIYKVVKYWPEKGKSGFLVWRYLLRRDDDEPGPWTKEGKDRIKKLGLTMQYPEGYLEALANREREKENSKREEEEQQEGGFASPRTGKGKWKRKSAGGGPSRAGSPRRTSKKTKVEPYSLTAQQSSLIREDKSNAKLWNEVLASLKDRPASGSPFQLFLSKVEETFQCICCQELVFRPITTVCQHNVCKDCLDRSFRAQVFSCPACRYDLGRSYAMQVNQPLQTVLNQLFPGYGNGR

**Q.** With `O=C(Nc1cccc(C(F)(F)F)c1)c1cccnc1NCCc1ccccc1` as the compound, how does the CC50 [1] read?
**A.** > 40 µM (active)

**Q.** For `C=C(C)CN1CCN(S(=O)(=O)c2ccc(C)c(N(C)S(=O)(=O)c3ccc(C)cc3)c2C)CC1`, which EC50 (Mucolipin-3) is on record?
**A.** 2.76 µM (active)

**Q.** What about the EC50 (Ion channel NompC) of the same compound?
**A.** > 29.9 µM (not active)

**Q.** And the IC50 [2]?
**A.** > 69.5 µM (inactive)

**Q.** Which results are given for `CC(C)N1CCC2(CC1)C(C#N)=C(N)NC(S)=C2C#N`?
**A.** IC50 [3]: > 100 µM (active); CC50 [1]: > 40 µM (active)

**Q.** For `CCC(=O)N1CCN(c2ccc(Cl)cc2NC(=O)c2ccc([N+](=O)[O-])o2)CC1`, which AC50 [4] is on record?
**A.** 12.4 µM (active)

**Q.** And the AC50 [5]?
**A.** 29.4 µM (active)

**Q.** For `CCn1nc(C(=O)OC(C(=O)c2c[nH]c3ccccc23)c2ccccc2)c2ccccc2c1=O` (stereo not drawn), which IC50 [6] is on record?
**A.** > 69.5 µM (inactive)

**Q.** And the IC50 [7]?
**A.** > 69.5 µM (inactive)

**Q.** With `OC(c1ccccc1)(c1nc(-c2ccc(Cl)cc2)cs1)C(F)(F)F` (stereo not drawn) as the compound, how does the IC50 [6] read?
**A.** 13.9 µM (inactive)

**Q.** What about the IC50 [7] of the same compound?
**A.** > 69.5 µM (inactive)

**Q.** With `Clc1ccc2c(c1)-c1ccccc1C1=NCCN12` as the compound, how does the EC50 [8] read?
**A.** 4.65 µM (active)

**Q.** And the EC50 [9]?
**A.** > 91.3 µM (inactive)

**Q.** What about the IC50 [10] of the same compound?
**A.** > 43.8 µM (inactive)

**Q.** And the EC50 (HEK293 [11])?
**A.** > 59.5 µM (inactive)

**Q.** And the EC50 (HEK293 [12])?
**A.** > 59.5 µM (inactive)

**Q.** Which IC50 [13] does the source give for `CCc1cc(-c2nnn(CCC3COCCO3)c2CC)ccc1-c1cn(Cc2ccc3ccccc3c2)nn1` (stereo not drawn) here?
**A.** 10 µM (inactive)
